Measured values: patent US9994536B2, “Compounds and methods of treating neurological disorders” (TORREY PINES INSTITUTE FOR MOLECULAR STUDIES, priority 2014, dated 2018)

Columns and labels:
[1] = Brain levels of compound after i.p. injection (BBB passage), LC-MS; assay type: in vivo, mouse
Procedure: (3). Since blood brain barrier (BBB) is the main obstacle for drug development for any CNS disorders, we first wanted to verify whether compound THPI-244 enters the brain. We followed protocols exactly as published previously from our laboratory (Hayes, C D et al., 2013, BMC Med. 26, 11.81). […] We generated a standard graph (FIG. 1.4 (middle)) to be used in the quantitation of THPI-244 in the brain after intraperitoneal (i.p.) injections at 0.2 mg/kg body weight.

[2] = system: fibroblasts derived directly from AD patients; test: MTT cytotoxicity assay, AD fibroblasts; assay type: cell-based; settings: 24 h exposure, human AD fibroblasts
Text: (4). Toxicity is another crucial limitation for successful drug development as evidenced by recent failure of γ-secretase inhibitors at the clinical trials due to cytotoxicity (Cole, S L and Vassar, R, 2007, Mol. Neurodeg. 2, 22-47; Doody R S, et al. 2013. N. Eng. J. Med. 369, 341-350). Therefore we measured cytotoxicity by very sensitive MTT assay as described previously (Hayes, C D., et al. 2013, BMC Medicine. 26, 11.81; 23; Hayes, C D., et al., 2012, PLoS One 7, e45841) in human primary neurons obtained from a commercial source (cat #1520, ScienCell, Carlsbad, Calif., USA) and fibroblasts derived directly from AD patients (cat #AG06263C, Coriell Institute Cell repository supported by NINDS, NIH). […] We directly used human neurons for toxicity studies so as to reduce the chances of future failure at a later stage due to toxicity.

Aβ42 = Aβ42 ELISA, NT2 stable cells; assay type: cell-based, human
Procedure: (5). To confirm the effect of THPI-244 on sAPPα levels in a neuronal cell line and by a tertiary assay, we exposed human Neuron-committed Teratocarcinoma cell line (NT2) stably expressing human APP751 to different concentrations of THPI-244 for 24 h and compared with that of Bryostatin, a classical activator of PKC known to stimulate sAPPα release. […] Levels of sAPPα were measured by ELISA using commercially available kit (cat #27734, IBL-America, Minneapolis, Minn., USA). […] Similar biphasic effect of Bryostatin was confirmed for Aβ42 also, measured again in NT2 stable cells by ELISA (cat #KHB3441, Life Technologies, Grand Island, N.Y., USA). Consistent with sAPPα, THPI-244 decreased Aβ42 levels dose-dependently starting from 50 nM (28%, p<0.05) to 2000 nM (64%, p<0.001) (n=4 independent experiments) (FIG. 1.7). Thus THPI-244 increased non-amyloidogenic processing of APP in NT2 cells.

[3] = system: Wild-type (WT) C57BL/6 mice; test: Lethal dose (LD50) study in mice; assay type: in vivo, mouse
Text: Wild-type (WT) C57BL/6 mice aged about 6 months were used in the study. The compound THPI-244 was initially dissolved in 100% DMSO and then diluted to final 10% DMSO with phosphate buffered saline (PBS). […] Among these 6 mice, 3 mice received repeated injections (i.p) of compound THPI-244 for 5 days.

TrkA [4] = biological target: T1, TrkA (Mus musculus, UniProt Q3UFB7); test: Mouse brain lysate immunoblot, TrkA; assay type: in vivo; settings: 100 mg/kg i.p. for 5 days
T1 construct: from tissue; host or cells: mouse brain lysate
Procedure: FIGS. 9.2A and B illustrate that THPI-244 increases TrkA and sAPPα in the mouse brain. FIG. 9.2A illustrates that THPI-244 was administered to mice by i.p. injections at 100 mg/kg body weight for 5 days and the brain lysates were subjected to immunoblots. Specific antibodies were used to detect TrkA and sAPPα. […] Data are mean±SEM, n=3*, p<0.05, ***, p<0.001.

PI3Kα = test: Signal transduction analysis, PI3Kα; assay type: cell-based, human; settings: NT2 cells
Text: (§1) (2). THPI-244 increases sAPPα by a novel mechanism of upregulating TrkA, a neurotrophic receptor. Therefore, in addition to increasing neuroprotective sAPPα and decreasing toxic Aβ, THPI-244 mediated increased TrkA protein levels are expected to provide neurotrophic support. Following the validation of the effect of THPI-244 in increasing sAPPα levels in CHO cells, NT2 cells, AD fibroblasts and human primary neurons, we were interested in identifying the molecular target of THPI-244 for unraveling the molecular mechanism by which it increases sAPPα which in turn can predict toxicity profile and whether to pursue long-term studies. Increased protein levels of both native and phosphorylated form of TrkA in NT2 cells and mouse brains by THPI-244 validated TrkA as the target.

P75NTR = test: Signal transduction analysis, P75NTR; assay type: cell-based, human; settings: NT2 cells
Text: as §1

TrkA [5] = biological target: T2, TrkA (Homo sapiens, UniProt P04629); test: Table of THPI-244 analogs: TrkA increase
Target sequence in this assay (P04629 33-796, species assumed): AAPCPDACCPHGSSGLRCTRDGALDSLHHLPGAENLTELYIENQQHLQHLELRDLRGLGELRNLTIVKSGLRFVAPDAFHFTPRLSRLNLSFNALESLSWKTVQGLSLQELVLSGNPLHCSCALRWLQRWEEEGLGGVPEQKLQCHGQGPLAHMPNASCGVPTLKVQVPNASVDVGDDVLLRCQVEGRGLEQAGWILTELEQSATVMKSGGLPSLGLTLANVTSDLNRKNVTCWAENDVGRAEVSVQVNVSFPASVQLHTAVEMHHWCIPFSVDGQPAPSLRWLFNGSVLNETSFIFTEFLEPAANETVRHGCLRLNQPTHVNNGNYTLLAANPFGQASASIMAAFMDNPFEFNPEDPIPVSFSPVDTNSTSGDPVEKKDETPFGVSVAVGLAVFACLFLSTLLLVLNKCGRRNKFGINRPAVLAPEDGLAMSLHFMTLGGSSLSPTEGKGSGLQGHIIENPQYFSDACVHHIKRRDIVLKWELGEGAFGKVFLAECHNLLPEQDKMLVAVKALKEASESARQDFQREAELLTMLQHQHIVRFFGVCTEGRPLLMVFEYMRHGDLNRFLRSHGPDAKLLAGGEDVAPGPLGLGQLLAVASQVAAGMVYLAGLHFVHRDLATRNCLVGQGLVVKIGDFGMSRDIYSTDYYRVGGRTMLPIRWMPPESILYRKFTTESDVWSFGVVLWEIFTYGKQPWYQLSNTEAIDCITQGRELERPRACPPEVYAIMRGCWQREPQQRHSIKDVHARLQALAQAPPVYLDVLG

TrkA [6] = biological target: T2, TrkA; test: TrkA protein level immunoblot, NT2 cells, with or without PKC inhibitor; assay type: cell-based; set-up: endogenous in cells; host or cells: NT2 cells (stably expressing APP751)
Procedure: (3). THPI-244 increases TrkA receptor levels independent of protein kinase C (PKC). Next to clarify whether increased sAPPα levels depends on increased TrkA activation, NT2 cells were treated with THPI-244 with or without TrkA inhibitor (cat #GW 441756, Tocris Bioscience) at 50 nM final concentration. After 24 h, sAPPα levels were quantified from the conditioned medium by immunoblots. […] We next wanted to address whether increased TrkA protein levels by THPI-244 depends on PKC since PKC activators are well-known to induce sAPPα secretion (Etcheberringaray, R., et al., 2004, PNAS, 101, 11141-11146). NT2 cells were similarly treated with THPI-244 at 100 nM with or without PKC inhibitor (GF 109203, cat #0741, Tocris Bioscience) at 1.0 nM and TrkA protein levels were quantified by immunoblots as shown in FIG. 1.10 (right). […] Thus increased sAPPα level by THPI-244 is through upregulation of TrkA receptor independent of PKC.
Target sequence in this assay (P04629 33-796): as the sequence (P04629 33-796, species assumed) above

T1 sequence (Q3UFB7 34-799): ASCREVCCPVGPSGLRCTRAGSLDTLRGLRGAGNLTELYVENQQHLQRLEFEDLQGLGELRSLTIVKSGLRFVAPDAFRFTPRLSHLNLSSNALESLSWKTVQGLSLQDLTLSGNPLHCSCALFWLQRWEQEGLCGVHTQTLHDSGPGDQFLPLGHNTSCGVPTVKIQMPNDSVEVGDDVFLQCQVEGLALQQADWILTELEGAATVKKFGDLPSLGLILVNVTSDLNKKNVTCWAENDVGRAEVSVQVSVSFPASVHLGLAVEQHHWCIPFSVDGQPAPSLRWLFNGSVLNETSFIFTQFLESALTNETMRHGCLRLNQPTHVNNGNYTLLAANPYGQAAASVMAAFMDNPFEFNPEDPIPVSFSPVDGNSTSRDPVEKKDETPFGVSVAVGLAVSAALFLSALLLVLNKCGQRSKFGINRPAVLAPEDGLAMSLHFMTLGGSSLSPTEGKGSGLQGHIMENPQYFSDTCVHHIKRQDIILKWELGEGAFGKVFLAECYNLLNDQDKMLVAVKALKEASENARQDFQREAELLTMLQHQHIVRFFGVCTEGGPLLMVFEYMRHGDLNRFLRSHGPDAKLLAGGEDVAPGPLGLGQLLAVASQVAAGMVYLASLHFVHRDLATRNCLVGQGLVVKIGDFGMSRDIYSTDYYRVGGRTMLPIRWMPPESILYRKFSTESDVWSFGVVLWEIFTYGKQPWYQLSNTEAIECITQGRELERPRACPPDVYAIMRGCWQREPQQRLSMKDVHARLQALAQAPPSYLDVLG

O=C(Cc1ccccc1)N[C@H](CNc1nc(CN2CCN(C(=O)Cc3ccccc3)CC2)cs1)c1ccccc1 [THPI-244]
time to maximum level in brain ([1]; 0.2 mg/kg i.p., mouse): ≤ 5 min | amount remaining in brain ([1]; 240 min after 0.2 mg/kg i.p.): negligible amount | lowest concentration with significant cytotoxicity [2]: 50 µM | lowest concentration with significant decrease of Aβ42 (Aβ42): 50 nM | lethality ([3]; 100 mg/kg i.p., 6 mice, monitored for 5 days): did not result in the death of any of the 6 mice | lethality ([3]; 200 mg/kg, single mouse): survived without visible ill effects | lethality ([3]; repeated i.p. injections for 5 days, 3 mice): None of the mice showed any lethal effect | increase of TrkA in brain (TrkA [4]): 78% | effect on PI3Kα pathway (PI3Kα): activation of PI3Kα | effect on P75NTR (P75NTR): did not affect | % TrkA ⬆ (TrkA [5]): 99% | TrkA protein level (TrkA [6]; THPI-244 100 nM): 197% | TrkA protein level (TrkA [6]; THPI-244 100 nM plus PKC inhibitor GF 109203 1.0 nM): 192%
